Results: patent US8765696B2, “Steroid compound” (Mikasa Seiyaku Co., Ltd., priority 2009, dated 2014)

How the values were obtained:
[1] = Amount of production of active metabolite in inflamed skin and non-inflamed skin; format: in vivo; conditions: hairless rat, 0.1 mL of 0.1% ointment, LC/MS/MS, Mean ± S.D.
Source text: The compounds of the present invention have the advantageous feature that they show the pharmacological effect after being metabolized to an active metabolite (des-ciclesonide) at the site of inflammation. The amount of the active metabolite produced when the compound of the present invention was applied to inflamed skin (skin whose dermatitis was induced by DNCB) or non-inflamed skin (normal skin) was compared.
Using, as the test region, an area of 3 cm×4 cm on the abdomen of a hairless rat of 9 weeks old, 0.4 mL of 1% DNCB/acetone solution was applied to the inside of the region under isoflurane anesthesia, to carry out sensitization. Two weeks later, 1 mL of 1% DNCB/acetone solution was applied to the inside of the region to cause induction, and, 48 hours thereafter, 0.1 mL of a test drug (0.1% ointment) was uniformly applied to the test region. The skin was removed 48 hours after the beginning of the application of the test drug. On the other hand, the test drug was also applied to a normal animal which had not been subjected to the sensitization and the induction, and the skin was removed 48 hours later. […] After centrifugation (10,000 g, 4° C., 5 min.), the centrifugal supernatant was subjected to quantification of the amount of the active metabolite (des-ciclesonide) using LC/MS/MS. […]

[2] = system: croton oil-induced ear edema; experiment: Test for croton oil-induced ear edema; format: in vivo; conditions: rat right auricle; for Edema suppression rate of 6 hours after administration of inflammatory agent (%): 6 hours after croton oil; for Edema suppression rate of 24 hours after administration of inflammatory agent (%): 24 hours after croton oil
Protocol: Croton oil ear edema test, which is a representative model for dermatitis, was used to study the pharmacological effect of compounds of the present invention.
Five individuals/group of rats of 5 weeks old (body weight, 128 g to 169 g) were used. One day before the test, the thickness of the right ear was measured under ether anesthesia using a dial thickness gauge, to obtain the Pre value. On the day of the test, 20 mg each of the ointments to be tested, which had been prepared to have various concentrations in white vaseline, was applied to the right auricle (both sides) of each rat, and a collar was then placed around the neck of the rat to prevent contacting/scratching and removal of the drug. Two hours later, the ointment was wiped off under ether anesthesia using absorbent cotton, and 0.1 mL of 5% croton oil (croton oil:ether:pyridine:distilled water=1:14:4:1) solution was applied dropwise to the both sides of the auricle while drying the solution with a drier (air blow), to induce ear edema. Six and 24 hours after the induction of the edema, the thickness of the right auricle was measured under ether anesthesia, and the edema rate and the edema suppression rate were calculated according to the equations below, which suppression rate is shown in Table 1.

[3] = system: croton oil-induced granuloma; experiment: Test for croton oil-induced granuloma (air pouch exudate and thymus weight); format: in vivo, rat; conditions: male Wistar rats, 7 days, vs control group
Source text: Using the croton oil granuloma test, which is a test method with which the local anti-inflammatory action and the systemic side effect can be evaluated at the same time, the pharmacological effect and the systemic side effect of the compounds of the present invention were studied.
Five individuals/group of male Wistar rats having body weights of 180 to 225 g were used, and hair on the back of these rats was shaved with a clipper under ether anesthesia, followed by preparing an air pouch by subcutaneous injection of 20 mL of air at the back. On the next day, 1 mL of cottonseed oil containing 1% croton oil was administered to the pouch. Each test drug was suspended in the croton oil-containing cottonseed oil before administration. Seven days later, blood was collected from abdominal aorta under ether anesthesia, and exudate in the pouch was collected and its fluid amount was measured. Further, the thymus was removed, and its weight was measured. The weight of the exudate and the weight of the thymus are shown in Table 2 as the suppression rate and the atrophy rate (%) with respect to those of the control group.

[4] = system: DNCB-induced dermatitis; experiment: Test for DNCB-induced dermatitis (skin thickness and thymus weight); format: in vivo; conditions: rat, 0.1 mL once per day, 6 times
Protocol: The DNCB-induced dermatitis test, which is a representative model for allergic dermatitis, was used to study the pharmacological effect of the compound of the present invention.
Abdominal hair of rats (body weight, 205 to 230 g) under isoflurane anesthesia was shaved with an electric clipper and a shaver, and a test region having a size of 3 cm×4 cm was prepared, followed by applying 0.4 mL of 1% DNCB/acetone solution to the inside of the region, to carry out sensitization. Two weeks later, 1 mL of 1% DNCB/acetone solution was applied to the inside of the region to cause induction, and 4 days thereafter, reinduction was carried out. Two days after the reinduction, the skin was removed from the test region, and 5 predetermined positions were punched out using a punch having a diameter of 12 mm, followed by measuring the skin thickness using a dial thickness gauge. Further, to investigate the influence of side effects, the thymus was removed to measure its weight. Application of the test drug was carried out 4 hours after the first dermatitis induction such that 0.1 mL of the ointment is uniformly applied over the test region. Thereafter, the test drug was applied once per day, a total of 6 times until the next day of the reinduction (the day before removal of the skin). The skin thickness and the weight of the thymus are shown in Table 3 as the suppression rate and the atrophy rate (%) relative to those of the control group.

[5] = drug concentration 0.01% ointment
[6] = drug concentration 0.10% ointment

SMILES	Drug concentration of active metabolite (Compound C), 48 hours after test drug were applied once ([1]; DNCB-induced dermatitis skin)	Drug concentration of active metabolite (Compound C), 48 hours after test drug were applied once ([1]; non-inflamed skin (normal skin))	Edema suppression rate of 6 hours after administration of inflammatory agent (%) ([2]; ointment concentration 0.001%)	Edema suppression rate of 24 hours after administration of inflammatory agent (%) ([2]; ointment concentration 0.001%)	Edema suppression rate of 6 hours after administration of inflammatory agent (%) ([2]; ointment concentration 0.01%)	Edema suppression rate of 24 hours after administration of inflammatory agent (%) ([2]; ointment concentration 0.01%)	Edema suppression rate of 6 hours after administration of inflammatory agent (%) ([2]; ointment concentration 0.1%)	Edema suppression rate of 24 hours after administration of inflammatory agent (%) ([2]; ointment concentration 0.1%)	Rate of exudates suppression (pharmacological effects) ([3]; dose 0.001 mg/rat into pouch) [%]	Rate of thymus atrophy (systemic side effects) ([3]; dose 0.001 mg/rat into pouch) [%]	Rate of exudates suppression (pharmacological effects) ([3]; dose 0.01 mg/rat into pouch) [%]	Rate of thymus atrophy (systemic side effects) ([3]; dose 0.01 mg/rat into pouch) [%]	Rate of exudates suppression (pharmacological effects) ([3]; dose 0.1 mg/rat into pouch) [%]	Rate of thymus atrophy (systemic side effects) ([3]; dose 0.1 mg/rat into pouch) [%]	Rate of exudates suppression (pharmacological effects) ([3]; dose 1 mg/rat into pouch) [%]	Rate of thymus atrophy (systemic side effects) ([3]; dose 1 mg/rat into pouch) [%]	Rate of Skin thickness suppression (pharmacological effects) (%) [4, 5] [%]	Rate of thymus atrophy (systemic side effects) (%) [4, 5] [%]	Rate of Skin thickness suppression (pharmacological effects) (%) [4, 6] [%]	Rate of thymus atrophy (systemic side effects) (%) [4, 6] [%]
CC(=O)OCC1OC(OCC(=O)C23OC(C4CCCCC4)OC2CC2C4CCC5=CC(=O)C=CC5(C)C4C(O)CC23C)C(OC(C)=O)C(OC(C)=O)C1OC(C)=O (stereo not drawn) [Compound 3]	1272 ± 276 (ng/g)	119 ± 48 (ng/g)	50.3	48.1	46.1	58.0	51.7	56.0	7.9	0.0	41.6	0.0	92.7	0.0	96.3	2.4	46.1	0.0	60.5	0.0
CC12C=CC(=O)C=C1CCC1C2C(O)CC2(C)C1CC1OC(C3CCCCC3)OC12C(=O)COC1OC(COC(=O)c2ccco2)C(OC(=O)c2ccco2)C(OC(=O)c2ccco2)C1OC(=O)c1ccco1 (stereo not drawn) [Compound 8]	–	–	24.2	25.9	36.0	40.1	33.4	49.6	19.1	0.0	42.1	0.0	78.0	0.0	95.0	0.5	–	–	–	–
CC(=O)OC1C(C)OC(OCC(=O)C23OC(C4CCCCC4)OC2CC2C4CCC5=CC(=O)C=CC5(C)C4C(O)CC23C)C(OC(C)=O)C1OC(C)=O (stereo not drawn) [Compound 9]	–	–	24.6	17.8	36.7	8.6	23.0	21.6	10.4	12.2	7.3	10.8	26.1	9.4	58.2	15.5	–	–	–	–
